In experiment [1] the target is Vascular endothelial growth factor receptor 1 (Homo sapiens) (UniProt P17948). Description: Selectivity interaction (SelectScreen profiling (Invitrogen)) EUB0000607a FLT1. The settings on record: at 2 µM.
Experiment [2] concerns the target Serine/threonine-protein kinase MARK2 (Homo sapiens) (UniProt Q7KZI7). Briefly: Selectivity interaction (KinomeScan (DiscoverX)) EUB0000045b MARK2.
Experiment [3] addresses Phosphatidylinositol 4,5-bisphosphate 3-kinase catalytic subunit alpha isoform (Homo sapiens) (UniProt P42336). Briefly: Selectivity interaction (Kinase panel (literature)) EUB0001199aCl PIK3CA. The settings on record: at 1 µM.
In experiment [4] the target is T1, Cyclin-dependent kinase-like 5 (Homo sapiens) (UniProt O76039).
T1 sequence (whole entry): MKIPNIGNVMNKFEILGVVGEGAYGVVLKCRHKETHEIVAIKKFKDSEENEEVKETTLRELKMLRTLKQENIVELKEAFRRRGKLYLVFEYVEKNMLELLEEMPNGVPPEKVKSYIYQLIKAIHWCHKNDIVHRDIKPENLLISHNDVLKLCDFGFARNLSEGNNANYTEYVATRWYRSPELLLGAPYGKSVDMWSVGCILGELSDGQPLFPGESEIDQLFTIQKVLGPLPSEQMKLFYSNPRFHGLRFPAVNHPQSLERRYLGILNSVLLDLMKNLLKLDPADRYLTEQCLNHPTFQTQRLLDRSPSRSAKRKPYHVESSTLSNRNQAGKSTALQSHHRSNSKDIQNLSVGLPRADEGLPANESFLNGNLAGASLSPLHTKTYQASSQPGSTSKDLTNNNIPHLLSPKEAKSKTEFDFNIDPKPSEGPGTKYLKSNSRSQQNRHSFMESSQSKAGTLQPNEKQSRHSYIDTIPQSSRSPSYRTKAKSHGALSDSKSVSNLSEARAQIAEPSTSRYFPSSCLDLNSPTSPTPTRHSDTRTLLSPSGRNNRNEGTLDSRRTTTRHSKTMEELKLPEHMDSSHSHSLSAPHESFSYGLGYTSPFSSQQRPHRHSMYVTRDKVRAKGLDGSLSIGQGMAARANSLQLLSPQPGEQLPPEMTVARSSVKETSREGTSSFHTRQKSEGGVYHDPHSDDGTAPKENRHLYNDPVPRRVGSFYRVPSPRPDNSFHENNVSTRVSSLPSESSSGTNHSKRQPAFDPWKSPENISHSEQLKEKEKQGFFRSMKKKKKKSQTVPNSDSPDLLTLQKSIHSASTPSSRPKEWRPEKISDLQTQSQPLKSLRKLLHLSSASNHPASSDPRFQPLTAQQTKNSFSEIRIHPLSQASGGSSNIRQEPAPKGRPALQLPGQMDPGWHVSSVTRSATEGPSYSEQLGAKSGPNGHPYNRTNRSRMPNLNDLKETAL
Description: Selectivity interaction (Ambit KINOMEscan and KiNATiv profiling in Jurkat cells) EUB0000090b CDKL5. It is filed as cell-based. The note with it: at 1 µM.

In experiment [5] the target is T2, Serine/threonine-protein kinase ULK2 (Homo sapiens) (UniProt Q8IYT8).
T2 sequence (whole entry): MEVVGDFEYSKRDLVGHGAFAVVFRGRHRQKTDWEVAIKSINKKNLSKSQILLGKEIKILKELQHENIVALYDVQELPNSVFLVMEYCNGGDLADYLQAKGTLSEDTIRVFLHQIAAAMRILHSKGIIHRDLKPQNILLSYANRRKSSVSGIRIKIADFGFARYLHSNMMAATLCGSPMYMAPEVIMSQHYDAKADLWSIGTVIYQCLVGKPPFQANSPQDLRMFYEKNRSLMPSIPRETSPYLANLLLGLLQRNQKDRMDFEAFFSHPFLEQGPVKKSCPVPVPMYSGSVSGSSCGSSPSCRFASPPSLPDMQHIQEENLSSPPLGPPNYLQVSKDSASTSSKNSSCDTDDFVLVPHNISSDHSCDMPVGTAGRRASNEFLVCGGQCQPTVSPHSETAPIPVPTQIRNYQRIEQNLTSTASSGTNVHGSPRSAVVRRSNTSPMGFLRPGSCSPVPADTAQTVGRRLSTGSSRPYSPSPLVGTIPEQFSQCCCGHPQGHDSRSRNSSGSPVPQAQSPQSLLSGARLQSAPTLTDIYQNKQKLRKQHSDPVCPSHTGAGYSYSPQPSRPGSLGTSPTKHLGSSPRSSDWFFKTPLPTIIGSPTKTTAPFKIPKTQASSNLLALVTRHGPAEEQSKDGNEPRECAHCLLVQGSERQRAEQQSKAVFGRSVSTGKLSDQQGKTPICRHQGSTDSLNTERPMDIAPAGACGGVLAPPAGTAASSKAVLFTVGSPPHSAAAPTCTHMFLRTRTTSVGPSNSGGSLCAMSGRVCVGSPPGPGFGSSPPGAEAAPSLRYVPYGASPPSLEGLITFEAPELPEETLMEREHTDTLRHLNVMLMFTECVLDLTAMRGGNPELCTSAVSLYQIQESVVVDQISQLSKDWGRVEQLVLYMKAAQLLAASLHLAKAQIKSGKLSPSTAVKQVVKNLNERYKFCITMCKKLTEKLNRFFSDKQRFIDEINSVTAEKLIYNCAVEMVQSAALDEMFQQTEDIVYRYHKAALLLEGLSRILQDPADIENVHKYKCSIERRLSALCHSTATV
Description: Selectivity interaction (Ambit KINOMEscan and KiNATiv profiling in Jurkat cells) EUB0000090b ULK2. It is filed as cell-based. The note with it: at 1 µM.

Experiment [6] deals with Serine/threonine-protein kinase MARK2 (Homo sapiens) (UniProt Q7KZI7). Briefly: Selectivity interaction (KinomeScan (DiscoverX)) EUB0000655a MARK2. The note with it: at 10 µM.
Sequence of Serine/threonine-protein kinase MARK2 (Homo sapiens) (Q7KZI7 whole entry, canonical isoform): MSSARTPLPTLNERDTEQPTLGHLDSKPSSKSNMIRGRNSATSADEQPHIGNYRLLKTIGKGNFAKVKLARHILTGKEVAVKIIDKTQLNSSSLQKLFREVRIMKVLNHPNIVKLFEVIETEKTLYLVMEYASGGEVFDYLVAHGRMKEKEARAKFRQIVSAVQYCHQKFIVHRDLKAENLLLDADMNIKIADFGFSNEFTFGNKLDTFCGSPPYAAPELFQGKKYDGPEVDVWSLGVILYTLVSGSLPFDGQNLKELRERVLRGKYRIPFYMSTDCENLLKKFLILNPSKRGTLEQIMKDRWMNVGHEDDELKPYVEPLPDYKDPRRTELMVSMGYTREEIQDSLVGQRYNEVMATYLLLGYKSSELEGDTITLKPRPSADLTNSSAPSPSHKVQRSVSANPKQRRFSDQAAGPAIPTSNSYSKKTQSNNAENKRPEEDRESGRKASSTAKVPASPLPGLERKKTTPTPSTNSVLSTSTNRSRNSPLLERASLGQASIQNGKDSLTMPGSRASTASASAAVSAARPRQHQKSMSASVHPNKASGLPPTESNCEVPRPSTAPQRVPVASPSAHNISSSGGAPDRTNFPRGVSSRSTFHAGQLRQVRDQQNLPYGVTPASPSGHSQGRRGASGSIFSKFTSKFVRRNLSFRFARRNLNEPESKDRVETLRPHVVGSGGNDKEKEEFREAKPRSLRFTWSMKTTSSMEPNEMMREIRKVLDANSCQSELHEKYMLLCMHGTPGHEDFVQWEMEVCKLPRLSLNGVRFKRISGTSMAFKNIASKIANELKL
Experiment [7] has as its target Ribosomal protein S6 kinase alpha-2 (Homo sapiens) (UniProt Q15349). Briefly: Selectivity interaction (KinomeScan (DiscoverX)) EUB0000618a RPS6KA2. The settings on record: at 10 µM.
For experiment [8], the target named is T3, Dual specificity mitogen-activated protein kinase kinase 7 (Homo sapiens) (UniProt O14733).
T3 sequence (whole entry): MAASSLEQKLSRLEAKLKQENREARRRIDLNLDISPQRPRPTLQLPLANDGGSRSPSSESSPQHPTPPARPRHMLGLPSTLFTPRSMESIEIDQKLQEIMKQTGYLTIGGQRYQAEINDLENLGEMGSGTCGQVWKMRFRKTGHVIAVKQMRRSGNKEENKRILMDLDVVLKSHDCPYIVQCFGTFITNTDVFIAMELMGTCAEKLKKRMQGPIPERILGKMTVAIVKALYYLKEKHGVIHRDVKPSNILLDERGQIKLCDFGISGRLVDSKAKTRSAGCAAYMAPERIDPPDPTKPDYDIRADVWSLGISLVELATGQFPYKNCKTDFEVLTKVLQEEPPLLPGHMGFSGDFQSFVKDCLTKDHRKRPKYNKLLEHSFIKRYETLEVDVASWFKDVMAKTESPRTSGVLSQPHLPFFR
Description: Selectivity interaction (KinomeScan (DiscoverX)) EUB0000618a MAP2K7. The note with it: at 10 µM.

Experiment [9] has as its target Serine/threonine-protein kinase PAK 4 (Homo sapiens, UniProt O96013). Description: Selectivity interaction (KinomeScan (DiscoverX)) EUB0000092b PAK4. The note with it: at 10 µM.
For experiment [10], the target named is Chromatin remodeling regulator CECR2 (Homo sapiens, UniProt Q9BXF3). Description: Selectivity interaction (Human bromodomain panel (DSF assay)) EUB0000233b CECR2.
Sequence of Chromatin remodeling regulator CECR2 (Q9BXF3 whole entry, looked up): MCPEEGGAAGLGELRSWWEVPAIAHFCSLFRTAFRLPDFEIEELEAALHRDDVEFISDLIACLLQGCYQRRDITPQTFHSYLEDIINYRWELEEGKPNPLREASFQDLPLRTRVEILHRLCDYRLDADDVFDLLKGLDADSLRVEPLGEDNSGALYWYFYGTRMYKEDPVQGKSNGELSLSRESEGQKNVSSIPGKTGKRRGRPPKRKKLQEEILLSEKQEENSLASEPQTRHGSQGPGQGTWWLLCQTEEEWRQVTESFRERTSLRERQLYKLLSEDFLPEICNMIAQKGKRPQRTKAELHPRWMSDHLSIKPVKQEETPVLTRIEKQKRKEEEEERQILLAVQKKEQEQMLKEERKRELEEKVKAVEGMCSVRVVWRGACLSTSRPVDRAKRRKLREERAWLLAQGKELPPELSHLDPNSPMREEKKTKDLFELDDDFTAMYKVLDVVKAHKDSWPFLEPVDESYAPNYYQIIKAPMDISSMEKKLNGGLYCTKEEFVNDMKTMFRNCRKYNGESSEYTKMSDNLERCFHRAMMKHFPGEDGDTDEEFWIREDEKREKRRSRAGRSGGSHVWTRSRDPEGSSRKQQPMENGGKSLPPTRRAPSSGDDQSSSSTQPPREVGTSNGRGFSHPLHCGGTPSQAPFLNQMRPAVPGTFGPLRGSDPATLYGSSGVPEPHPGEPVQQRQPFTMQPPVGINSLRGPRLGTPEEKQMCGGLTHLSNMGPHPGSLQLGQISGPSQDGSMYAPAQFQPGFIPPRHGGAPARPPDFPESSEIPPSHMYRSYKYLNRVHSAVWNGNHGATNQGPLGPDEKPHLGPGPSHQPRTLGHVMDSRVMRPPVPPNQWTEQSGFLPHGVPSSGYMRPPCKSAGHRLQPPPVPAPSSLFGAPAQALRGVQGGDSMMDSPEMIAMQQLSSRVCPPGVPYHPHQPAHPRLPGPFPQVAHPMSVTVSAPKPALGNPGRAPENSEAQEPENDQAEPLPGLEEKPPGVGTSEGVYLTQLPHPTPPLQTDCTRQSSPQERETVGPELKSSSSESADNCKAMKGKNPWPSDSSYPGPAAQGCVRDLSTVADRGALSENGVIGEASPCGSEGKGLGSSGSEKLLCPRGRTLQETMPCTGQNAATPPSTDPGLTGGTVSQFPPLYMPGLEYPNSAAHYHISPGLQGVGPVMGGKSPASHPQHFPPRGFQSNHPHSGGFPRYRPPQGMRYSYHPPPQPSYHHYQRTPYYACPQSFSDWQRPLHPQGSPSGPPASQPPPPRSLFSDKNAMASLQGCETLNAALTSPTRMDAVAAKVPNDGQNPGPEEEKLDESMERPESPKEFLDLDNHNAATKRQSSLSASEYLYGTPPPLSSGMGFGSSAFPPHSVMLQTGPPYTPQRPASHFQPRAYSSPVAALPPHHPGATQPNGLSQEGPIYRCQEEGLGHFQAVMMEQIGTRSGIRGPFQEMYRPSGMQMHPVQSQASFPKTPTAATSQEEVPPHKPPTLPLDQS

Sequence of Ribosomal protein S6 kinase alpha-2 (Homo sapiens) (Q15349 whole entry): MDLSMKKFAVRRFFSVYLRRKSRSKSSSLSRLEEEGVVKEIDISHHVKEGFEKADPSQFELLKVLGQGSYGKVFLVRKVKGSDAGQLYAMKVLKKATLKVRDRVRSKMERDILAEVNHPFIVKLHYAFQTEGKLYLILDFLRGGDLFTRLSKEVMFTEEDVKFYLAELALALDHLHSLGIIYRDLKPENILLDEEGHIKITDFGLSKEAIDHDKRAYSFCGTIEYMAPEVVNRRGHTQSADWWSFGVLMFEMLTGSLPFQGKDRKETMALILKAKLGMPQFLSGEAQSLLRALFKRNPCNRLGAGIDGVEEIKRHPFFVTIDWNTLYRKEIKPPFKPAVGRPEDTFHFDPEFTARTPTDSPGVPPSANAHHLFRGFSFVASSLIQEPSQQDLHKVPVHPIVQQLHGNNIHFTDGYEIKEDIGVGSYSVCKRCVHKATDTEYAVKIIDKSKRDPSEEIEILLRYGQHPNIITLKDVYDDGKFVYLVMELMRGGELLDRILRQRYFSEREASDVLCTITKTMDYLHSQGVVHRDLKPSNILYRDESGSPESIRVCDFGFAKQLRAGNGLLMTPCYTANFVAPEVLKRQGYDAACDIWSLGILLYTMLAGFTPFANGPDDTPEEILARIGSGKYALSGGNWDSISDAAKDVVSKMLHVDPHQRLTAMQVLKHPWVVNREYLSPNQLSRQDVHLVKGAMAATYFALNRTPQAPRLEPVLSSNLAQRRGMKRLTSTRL
Sequence of Phosphatidylinositol 4,5-bisphosphate 3-kinase catalytic subunit alpha isoform (Homo sapiens) (P42336 whole entry, canonical isoform): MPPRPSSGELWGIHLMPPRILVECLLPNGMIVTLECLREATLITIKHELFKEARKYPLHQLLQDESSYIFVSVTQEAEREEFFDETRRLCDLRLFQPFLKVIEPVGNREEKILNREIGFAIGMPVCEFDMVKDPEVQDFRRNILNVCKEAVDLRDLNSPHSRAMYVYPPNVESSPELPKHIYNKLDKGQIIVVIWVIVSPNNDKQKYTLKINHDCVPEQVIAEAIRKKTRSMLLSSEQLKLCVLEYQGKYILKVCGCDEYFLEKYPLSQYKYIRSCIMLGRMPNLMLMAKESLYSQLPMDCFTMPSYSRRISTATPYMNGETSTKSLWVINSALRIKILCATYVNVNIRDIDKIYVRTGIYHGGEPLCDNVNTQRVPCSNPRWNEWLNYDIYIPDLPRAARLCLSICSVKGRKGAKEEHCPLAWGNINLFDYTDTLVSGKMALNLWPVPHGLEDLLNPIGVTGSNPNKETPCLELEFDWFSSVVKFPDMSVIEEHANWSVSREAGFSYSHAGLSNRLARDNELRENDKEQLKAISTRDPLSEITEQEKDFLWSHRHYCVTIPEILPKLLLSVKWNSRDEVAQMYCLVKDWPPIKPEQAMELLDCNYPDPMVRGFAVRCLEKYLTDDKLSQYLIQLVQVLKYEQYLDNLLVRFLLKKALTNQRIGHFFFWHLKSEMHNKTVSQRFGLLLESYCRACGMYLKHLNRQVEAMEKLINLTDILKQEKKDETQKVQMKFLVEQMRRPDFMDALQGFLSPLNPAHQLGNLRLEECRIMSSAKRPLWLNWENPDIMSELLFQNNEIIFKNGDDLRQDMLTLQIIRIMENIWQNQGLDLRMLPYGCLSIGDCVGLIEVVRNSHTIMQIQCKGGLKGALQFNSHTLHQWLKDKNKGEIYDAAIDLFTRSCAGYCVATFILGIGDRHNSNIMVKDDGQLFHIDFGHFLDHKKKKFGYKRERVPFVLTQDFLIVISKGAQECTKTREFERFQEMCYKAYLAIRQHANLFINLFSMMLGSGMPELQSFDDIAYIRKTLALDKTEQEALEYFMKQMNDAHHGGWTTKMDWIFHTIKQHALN
Sequence of Serine/threonine-protein kinase PAK 4 (O96013 whole entry, looked up): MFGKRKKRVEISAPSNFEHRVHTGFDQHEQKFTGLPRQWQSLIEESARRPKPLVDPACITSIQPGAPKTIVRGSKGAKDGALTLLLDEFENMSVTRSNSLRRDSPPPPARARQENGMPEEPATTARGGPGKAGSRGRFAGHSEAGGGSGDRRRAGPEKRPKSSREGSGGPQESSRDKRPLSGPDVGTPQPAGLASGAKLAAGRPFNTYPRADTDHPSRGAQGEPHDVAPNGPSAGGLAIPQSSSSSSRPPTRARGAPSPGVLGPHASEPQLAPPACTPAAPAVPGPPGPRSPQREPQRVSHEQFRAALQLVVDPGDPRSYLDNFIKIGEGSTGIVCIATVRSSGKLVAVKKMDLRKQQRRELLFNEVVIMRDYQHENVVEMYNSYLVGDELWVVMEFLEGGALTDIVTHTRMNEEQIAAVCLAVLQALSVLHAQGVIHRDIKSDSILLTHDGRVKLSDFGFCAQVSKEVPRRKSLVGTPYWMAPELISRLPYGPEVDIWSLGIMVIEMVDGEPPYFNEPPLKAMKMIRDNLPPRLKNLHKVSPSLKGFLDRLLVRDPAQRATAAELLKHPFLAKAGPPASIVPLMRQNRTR

Take `CNC(=O)Nc1ccc(-c2nc(N3CC4CCC(C3)O4)c3cnn(C4CCC5(CC4)OCCO5)c3n2)cc1`: the % of inhibition in experiment [1] was found to be 8%. As to `C=CC(=O)Nc1cc(-n2c(=O)ccc3cnc4ccc(-c5ccc(NS(C)(=O)=O)cc5)cc4c32)ccc1C`, the % of control is 94% in experiment [2] (at 1 µM) and 100% in experiment [2] (at 10 µM). In experiment [3], `CN1Cc2nccc(-c3cn(C)nc3-c3ccc(F)cc3)c2C1=O` displayed a % of inhibition of 1%. On to `CN(C)C/C=C/C(=O)Nc1ccc(C(=O)N2CCCC(Nc3ncc(Cl)c(-c4c[nH]c5ccccc45)n3)C2)cc1` (stereo unspecified), for which the % of control in experiment [4] and in experiment [5] was 100% throughout. As to `CN(C)CCOc1ccc(-c2nc(-c3ccncc3)c(-c3ccc4c(c3)CC/C4=N\O)[nH]2)cc1`, in [6], the % of control came to 100%. With `O[C@H]1CC[C@H](Nc2ncc3nc(Nc4c(F)cc(F)cc4F)n([C@H]4CCOC4)c3n2)CC1`, the % of control was 78% in experiment [7] and 94% in [8]. In turn, `CCC(=O)N1CCN(c2ccc(-n3c(=O)ccc4cnc5ccc(-c6cnc7ccccc7c6)cc5c43)cc2C(F)(F)F)CC1` returned a % of control in experiment [9] of 100%. Regarding `CN(C)CCCOc1ccc(-c2cc(NCCCn3cccn3)nc(S(C)(=O)=O)n2)cc1`, in [10], the dTM amounted to 11.1 K.

Source of the values: ChEMBL document CHEMBL5465560, “Selectivity Literature for EUbOPEN Chemogenomic Library” (2024).
